Measurements taken from article PMC4747398, “Isothiocyanatostilbenes as novel c-Met inhibitors” (Oncotarget, 2015).
Where two headings read alike, the source gives them in different places.

What was measured:
c-Met [1] = target: T1, c-Met (Homo sapiens, UniProt P08581); assay: HGF-induced c-Met phosphorylation, western blot, DU145; assay type: cell-based; parameters: endogenous in cells; host or cells: DU145; conditions: for effective concentration for c-Met inhibition in 10% FBS versus serum-free: DU145, 33 ng/ml HGF 20 minutes, 10% FBS RPMI; for reduction of c-Met activation: 8 μM compound, western blot densitometry
T1 sequence (P08581 25-1390): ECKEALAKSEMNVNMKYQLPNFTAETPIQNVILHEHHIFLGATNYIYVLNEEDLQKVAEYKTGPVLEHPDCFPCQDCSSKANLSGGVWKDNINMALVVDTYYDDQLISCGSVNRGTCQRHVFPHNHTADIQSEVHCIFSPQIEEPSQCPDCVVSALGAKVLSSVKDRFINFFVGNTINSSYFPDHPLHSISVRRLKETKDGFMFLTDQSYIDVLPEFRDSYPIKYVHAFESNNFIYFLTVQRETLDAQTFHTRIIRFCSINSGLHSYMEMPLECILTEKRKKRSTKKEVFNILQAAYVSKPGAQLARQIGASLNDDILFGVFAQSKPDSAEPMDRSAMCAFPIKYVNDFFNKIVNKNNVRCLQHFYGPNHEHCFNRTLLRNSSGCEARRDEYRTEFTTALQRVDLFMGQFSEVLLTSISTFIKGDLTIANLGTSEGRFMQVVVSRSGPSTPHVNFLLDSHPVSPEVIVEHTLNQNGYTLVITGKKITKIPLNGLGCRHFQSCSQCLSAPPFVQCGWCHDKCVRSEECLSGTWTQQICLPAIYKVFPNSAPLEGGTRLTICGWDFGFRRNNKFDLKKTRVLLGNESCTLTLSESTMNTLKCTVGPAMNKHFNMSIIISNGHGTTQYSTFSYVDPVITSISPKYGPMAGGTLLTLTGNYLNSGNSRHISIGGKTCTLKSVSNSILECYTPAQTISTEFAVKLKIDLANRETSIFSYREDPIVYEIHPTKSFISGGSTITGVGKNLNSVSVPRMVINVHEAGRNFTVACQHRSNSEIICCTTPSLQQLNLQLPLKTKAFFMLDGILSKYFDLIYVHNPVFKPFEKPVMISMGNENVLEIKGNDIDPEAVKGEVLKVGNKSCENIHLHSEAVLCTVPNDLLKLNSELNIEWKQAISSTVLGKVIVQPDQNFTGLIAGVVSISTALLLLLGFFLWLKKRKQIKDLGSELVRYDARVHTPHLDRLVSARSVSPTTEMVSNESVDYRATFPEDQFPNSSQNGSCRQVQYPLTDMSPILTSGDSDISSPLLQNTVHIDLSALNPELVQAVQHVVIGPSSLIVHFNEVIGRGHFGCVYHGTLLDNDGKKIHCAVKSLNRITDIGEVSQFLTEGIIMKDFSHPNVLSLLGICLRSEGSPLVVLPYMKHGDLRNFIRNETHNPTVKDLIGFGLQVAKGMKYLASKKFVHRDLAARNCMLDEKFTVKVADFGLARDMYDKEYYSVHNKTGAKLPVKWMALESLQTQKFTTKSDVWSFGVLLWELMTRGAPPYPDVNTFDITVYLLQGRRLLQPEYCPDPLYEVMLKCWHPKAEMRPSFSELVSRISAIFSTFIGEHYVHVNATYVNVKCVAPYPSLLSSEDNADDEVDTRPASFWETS
Method: (§1) Cells were grown to ~70% confluency prior to treatment. Cells were serum-starved in serum-free media for 30 minutes prior to treatment in complete media or serum-free media for the indicated times. Cell lysates were collected in Laemmli (125 mM Tris, 4% SDS, 0.01% bromophenol blue, 30% sucrose) containing 0.5% β-mercaptoethanol and boiled ~8 minutes. Primary antibodies include: phospho-c-Met (Y1234/1235), phospho-Akt (S473), pEGFR (S845), pIGF-IRβ (Y1135/1136) (Cell Signaling Technology; Beverly, MA); α-actin (Sigma-Aldrich), c-Met (C-28) (Life Technologies). Secondary antibodies include: horseradish peroxidase-conjugated anti-rabbit and anti-mouse (GE Healthcare; Pittsburgh, PA). ECL 2 was used for chemiluminescent detection (Thermo Scientific; Rockford, IL). Densitometry was calculated using ImageJ (NIH).

IGFR = target: T2, IGFR (Homo sapiens, UniProt P08069); assay: IGF-induced IGFR activation, western blot, DU145; assay type: cell-based; conditions: DU145, 100 ng/ml IGF 20 minutes, 4 μM DIDS or 25 μM H2DIDS
T2 construct: endogenous in cells; host or cells: DU145
T2 sequence (P08069 31-1367): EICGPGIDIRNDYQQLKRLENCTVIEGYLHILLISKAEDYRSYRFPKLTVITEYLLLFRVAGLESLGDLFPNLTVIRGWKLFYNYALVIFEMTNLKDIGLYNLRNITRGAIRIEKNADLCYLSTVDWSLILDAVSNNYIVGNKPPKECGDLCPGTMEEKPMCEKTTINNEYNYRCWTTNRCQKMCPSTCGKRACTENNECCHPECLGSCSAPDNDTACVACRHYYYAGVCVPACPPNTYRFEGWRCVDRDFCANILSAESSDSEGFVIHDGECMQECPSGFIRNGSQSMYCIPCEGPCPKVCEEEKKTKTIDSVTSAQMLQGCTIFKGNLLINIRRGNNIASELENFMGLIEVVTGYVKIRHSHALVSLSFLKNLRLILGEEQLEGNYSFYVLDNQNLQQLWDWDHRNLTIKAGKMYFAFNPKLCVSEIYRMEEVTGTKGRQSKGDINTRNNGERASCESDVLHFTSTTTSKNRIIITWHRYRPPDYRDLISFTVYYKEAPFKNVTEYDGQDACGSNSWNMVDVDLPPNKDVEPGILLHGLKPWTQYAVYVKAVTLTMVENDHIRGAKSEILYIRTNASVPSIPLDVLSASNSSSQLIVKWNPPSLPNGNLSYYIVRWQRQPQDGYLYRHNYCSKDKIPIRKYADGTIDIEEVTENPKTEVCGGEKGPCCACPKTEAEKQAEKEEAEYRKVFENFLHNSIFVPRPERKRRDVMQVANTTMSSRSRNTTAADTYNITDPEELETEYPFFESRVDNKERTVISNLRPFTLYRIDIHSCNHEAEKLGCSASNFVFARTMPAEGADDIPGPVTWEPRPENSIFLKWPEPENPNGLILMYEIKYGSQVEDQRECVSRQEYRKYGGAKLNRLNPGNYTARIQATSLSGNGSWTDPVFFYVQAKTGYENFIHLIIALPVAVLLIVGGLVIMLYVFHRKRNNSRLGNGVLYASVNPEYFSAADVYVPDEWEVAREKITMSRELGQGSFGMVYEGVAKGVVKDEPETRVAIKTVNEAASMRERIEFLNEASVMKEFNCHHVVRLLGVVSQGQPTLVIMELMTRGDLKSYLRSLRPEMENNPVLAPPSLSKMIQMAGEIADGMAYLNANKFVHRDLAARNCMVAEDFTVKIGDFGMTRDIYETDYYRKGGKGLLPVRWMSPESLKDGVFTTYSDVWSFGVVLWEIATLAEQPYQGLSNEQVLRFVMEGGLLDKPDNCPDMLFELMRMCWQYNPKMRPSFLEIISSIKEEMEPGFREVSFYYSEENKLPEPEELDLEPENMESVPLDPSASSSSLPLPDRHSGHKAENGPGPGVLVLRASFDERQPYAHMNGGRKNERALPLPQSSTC
Method: as §1

DU145 cells [2] = assay: HGF-induced wound healing; assay type: cell-based; conditions: DU145, 33 ng/ml HGF, 4 μM DIDS or 25 μM H2DIDS
Method: (§2) DU145 cells were grown to ~100% confluency prior to wounding with the IncuCyte™ WoundMaker™ (Essen Bioscience; Ann Arbor, MI) and washed once with complete media. For invasion, cells were covered with Matrigel diluted 1:5 in serum-free RPMI following wounding. Cells were treated with 4 μM DIDS or 25 μM H2DIDS with or without 33 ng/ml HGF or 100 ng/ml EGF for up to 4 days. Images were taken every 4 hours with the IncuCyte™ ZOOM imaging system (Essen Bioscience). Quadruplicate replicates were used in each experiment. Data are presented as percent wound density ± standard error of the mean (S.E.M.).

[3] = 2D proliferation (Cell Titer Blue); assay type: cell-based; conditions: up to 72 hours; for effect on serum-free proliferation (2D): serum-free RPMI
Method: Cells were seeded to ~30% confluency prior to treatment with DIDS or H2DIDS at 0.5 μM, 2 μM, 8 μM, 32 μM, or 64 μM for 24 hours, 48 hours, or 72 hours in complete or serum-free RPMI. A T0 timepoint was also measured. For each timepoint, cells were exposed to Cell Titer Blue reagent (Promega) for 1 hour at 37°C 5% CO2. Experiments were performed with quadruplicate replicates. Fluorescence was measured using a BioTek Synergy 4 plate reader with Gen5 software.

wild-type c-Met = wild-type c-Met (Homo sapiens, UniProt P08581); assay: Z'-LYTE kinase phosphorylation inhibition assay, wild-type c-Met; assay type: biochemical
Chain of wild-type c-Met (P08581 25-1390): as the sequence (P08581 25-1390) above
Method: (§3) Z'-LYTE™ Kinase Assay-Tyr6 Peptide kit (Invitrogen) was used to assess the ability of tested compounds to inhibit c-Met phosphorylation. Briefly, 20 μl/well reactions were set up in 96-well plates containing kinase buffer, 200 μM ATP, 4 μM Z-LYTE™ Tyr6 Peptide substrate, 2500 ng/ml c-Met kinase and DIDS or H2DIDS at various concentrations. After 1 hour incubation at room temperature, 10 μl development solution containing site-specific protease was added to each well. Incubation was continued for 1 hour. The reaction was then stopped, and the fluorescent signal ratio of 445 nm (coumarin)/520 nm (fluorescein) was determined on a plate reader (BioTek FLx800™), which reflects the peptide substrate cleavage status and/or the kinase inhibitory activity in the reaction. […] The IC50 value for each compound was calculated by nonlinear regression of log concentration versus % c-Met phosphorylation ± S.E.M., implemented in GraphPad Prism version 5.0 (GraphPad Software, CA, USA).

EGFR = target: T3, EGFR (Homo sapiens, UniProt P00533); assay: EGF-induced EGFR activation, western blot, DU145; assay type: cell-based; conditions: DU145, 100 ng/ml EGF 20 minutes, 4 μM DIDS or 25 μM H2DIDS
T3 construct: 100 ng/ml EGF b; endogenous in cells; host or cells: DU145
Method: as §1

DU145 cells [4] = assay: EGF-induced wound healing; assay type: cell-based; conditions: DU145, 100 ng/ml EGF, 4 μM DIDS or 25 μM H2DIDS
Method: as §2

DU145 spheroids = assay: 3D spheroid proliferation in Matrigel; assay type: cell-based; conditions: 5 μM compound, 33 ng/ml HGF, 72 hours
Method: Prior to seeding, cells were incubated with 2.5 ng/μl CellTracker Red (Life Technologies) in complete DMEM lacking Phenol Red for 5 minutes at room temperature then centrifuged at 1000 RPM for 5 minutes. Dyed cells were resuspended in complete DMEM lacking Phenol Red and containing 5% Matrigel before adding 5 μM, 10 μM, 20 μM, or 40 μM DIDS or H2DIDS +/− HGF. The mixture of cells, treatments, and Matrigel in complete media was seeded at 2000 cells/well in a 96 well plate. The plate was centrifuged at 1000 RPM for 3 minutes to collect the cells into the bottom of the plate. Spheroid growth was imaged for up to 80 hours and analyzed for average red object area using the IncuCyte™ ZOOM software. […] Images were captured by the IncuCyte™ ZOOM imaging system and representative 10X images are shown.

DU145 cells [5] = assay: HGF-induced cell scattering assay; assay type: cell-based; conditions: DU145, 33 ng/ml HGF overnight, 4 μM DIDS or 25 μM H2DIDS
Method: DU145 cells were grown to ~50% confluency. Cells were treated overnight with 4 μM DIDS or 25 μM H2DIDS in the presence or absence of 33 ng/ml HGF or 100 ng/ml EGF. Cells were fixed with 4% paraformaldehyde and stained with Oregon Green 488 phalloidin (Invitrogen; Carlsbad, CA). Images were acquired on an Eclipse TE300 inverted microscope (Nikon; Tokyo, Japan) with NIS Elements version 4.13.04 software. Presented images were taken using a 10X objective.

c-Met [6] = target: T1, c-Met; assay: Constitutive pMet in c-Met amplified H1993 cells, western blot; assay type: cell-based; parameters: endogenous in cells; conditions: 5 μM compound, no HGF
Method: as §1

DU145 cells [7] = assay: HGF-induced invasion through Matrigel; assay type: cell-based; conditions: DU145, 33 ng/ml HGF, Matrigel diluted 1:5
Method: as §2

c-Met M1250T (M1268T) = c-Met M1250T (M1268T) (Homo sapiens, UniProt P08581, M1250T); assay: Z'-LYTE kinase phosphorylation inhibition assay, mutant c-Met; assay type: biochemical; conditions: 200 μM ATP, cell-free
Chain of c-Met M1250T (M1268T) (P08581 956-1390 M1250T limits assumed): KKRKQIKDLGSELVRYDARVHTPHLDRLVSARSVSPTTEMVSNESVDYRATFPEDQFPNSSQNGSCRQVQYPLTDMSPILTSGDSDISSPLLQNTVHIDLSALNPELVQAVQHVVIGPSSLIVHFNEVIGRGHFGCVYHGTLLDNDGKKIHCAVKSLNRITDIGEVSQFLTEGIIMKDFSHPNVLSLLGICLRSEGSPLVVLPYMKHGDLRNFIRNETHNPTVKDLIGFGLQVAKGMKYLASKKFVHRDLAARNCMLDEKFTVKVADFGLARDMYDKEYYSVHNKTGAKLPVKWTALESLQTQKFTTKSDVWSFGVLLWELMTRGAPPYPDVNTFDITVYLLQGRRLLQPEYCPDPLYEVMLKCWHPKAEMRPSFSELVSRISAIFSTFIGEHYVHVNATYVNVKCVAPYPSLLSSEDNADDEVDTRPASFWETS
Method: as §3

[8] = system: matrix metalloproteinase release; parameters: method as in PMID 22937143; conditions: cited from earlier work
c-Met [9] = target: T1, c-Met; assay: Washout and reversal of c-Met phosphorylation in DU145, western blot; assay type: cell-based; parameters: endogenous in cells; host or cells: DU145; conditions: wash
Method: as §1

[10] = system: MDA-MB-231/GFP human breast cancer cells; assay: Orthotopic breast tumor xenograft; assay type: in vivo; conditions: mice, 5 mg/kg then 10 mg/kg i.p.
Method: (§4) All animal experiments were approved by the Institutional Animal Care and Use Committee, University of Louisiana at Monroe, and were handled in strict accordance with good animal practice as defined by the NIH guidelines. Athymic nude mice (Foxn1^nu/Foxn1^+, 4–5 weeks, female) were purchased from Harlan (Indianapolis, IN). The mice had free access to standard pellet food and water. The animals were acclimated to animal house facility conditions at a temperature of 18–25°C, with a relative humidity of 55 to 65% and a 12 h light/dark cycle, for one week prior to the experiments. MDA-MB-231/GFP human breast cancer cells were cultured and resuspended in serum-free DMEM medium (20 μl). After anesthesia, cell suspensions (1 × 10^6 cells/20 μl) were inoculated subcutaneously into the second mammary gland fat pad just beneath the nipple of each animal to generate orthotopic breast tumors. […] The mice were monitored by measuring tumor volume, body weight, and clinical observation. Tumor volume (V) was calculated by V = L/2 × W^2, where L was the length and W was the width of tumors. The results are presented as average ± S.E.M. Differences among various treatment groups were determined by the analysis of variance (ANOVA) followed by Dunnett's test using PASW statistics version 18. […]

[11] = Tolerability in xenograft mice; assay type: in vivo
Method: as §4

[12] = system: protein translocation across the ER membrane; parameters: method as in PMID 8396042; conditions: cited from earlier work
Akt = assay: Downstream Akt phosphorylation, western blot, DU145; assay type: cell-based; conditions: DU145, serum-free, HGF, ~8 μM compound
Method: as §1

[13] = DU145, serum-free, 33 ng/ml HGF 20 minutes

| Structure (SMILES) | effective concentration for c-Met inhibition in 10% FBS versus serum-free (c-Met [1]) | reduction of c-Met activation (c-Met [1]; [13]) | effect on IGFR activation (IGFR) | effect on HGF-induced wound healing (DU145 cells [2]) | effect on proliferation in complete media (2D) [3] | effect on serum-free proliferation (2D) [3] | effect on EGFR activation (EGFR) | effect on EGF-mediated wound healing (DU145 cells [4]) | decrease of HGF-induced DU145 spheroid growth (DU145 spheroids) | effect on HGF-induced cell scattering (DU145 cells [5]) | effect on pMet levels in H1993 cells (c-Met [6]) | effect on HGF-induced invasion (DU145 cells [7]) | other results |
| --- | --- | --- | --- | --- | --- | --- | --- | --- | --- | --- | --- | --- | --- |
| O=S(=O)(O)c1cc(N=C=S)ccc1CCc1ccc(N=C=S)cc1S(=O)(=O)O [H2DIDS, 4,4′-Diisothiocyanatodihydrostilbene-2,2′-disulfonic acid] | slightly higher effective concentrations | ~ 90% | do not significantly reduce | significantly reduced | minimal effects | minimal effects | do not significantly reduce | minimal effects | ~ 60% | able to reduce HGF-induced | much less significant effects | reduce HGF-induced wound healing and invasion in a dose-dependent manner | IC50 (wild-type c-Met): 3600 nM |
| CC(=O)Nc1ccc(C=Cc2ccc(N=C=S)cc2S(=O)(=O)O)c(S(=O)(=O)O)c1 [SITS, 4-acetamido-4′-isothiocyanatostilbene-2,2′-disulfonic acid] |  |  |  |  |  |  |  |  |  |  |  |  | inhibition at 250 µM (c-Met [1]; DU-145, DU145, serum-free, 33 ng/ml HGF 20 minutes, 250 μM compound): ~90% |
| Cc1[nH]c(/C=C2\C(=O)Nc3ccc(S(=O)(=O)N(C)c4cccc(Cl)c4)cc32)c(C)c1C(=O)N1CCN(C)CC1 [SU11274] |  |  |  |  |  |  |  |  |  |  | ameliorated pMet levels |  | reduction of c-Met phosphorylation (wild-type c-Met; 500 nM compound, cell-free kinase assay): ~ 70% |
| O=S(=O)(O)c1cc(N=C=S)ccc1C=Cc1ccc(N=C=S)cc1S(=O)(=O)O [DIDS, 4,4′-Diisothiocyanatostilbene-2,2′-disulfonic acid] | slightly higher effective concentrations | ~ 90% | do not significantly reduce | significantly reduced | minimal effects | minimal effects | do not significantly reduce | minimal effects | ~ 60% | able to reduce HGF-induced | much less significant effects | reduce HGF-induced wound healing and invasion in a dose-dependent manner | IC50 (c-Met M1250T (M1268T)): 370 nM; concentration inhibiting matrix metalloproteinase release [8]: ≥ 400 µM; effect on pMet when given post HGF treatment (c-Met [9]; DU145, 33 ng/ml HGF 20 minutes, 4 μM for 20 or 60 minutes): reduced pMet levels; reversibility of c-Met inhibition after washout (c-Met [9]; DU145, 4 μM 20 minutes, then 33 ng/ml HGF 20 minutes): does not irreversibly bind c-Met; tumor size (caliper) ([10]; 3X/week): began to reduce tumor size towards the end of the experiment; tumor weight at necropsy ([10]; versus DMSO control): Differences in overall tumor weight were evident; signs of toxicity ([11]; 5 mg/kg intraperitoneally, ~2 weeks): No obvious signs of toxicity; body weight versus DMSO control ([11]; 5 mg/kg then 10 mg/kg i.p., 3X/week): no change in body weight; IC50 (wild-type c-Met; 200 μM ATP, cell-free, read-out: IC50, wild-type c-Met): 300 nM; concentration inhibiting protein translocation across the ER membrane [12]: ≥ 400 µM; reduction of downstream Akt (Akt): ~ 90% |
| O=[N+]([O-])c1ccc(C=Cc2ccc([N+](=O)[O-])cc2S(=O)(=O)O)c(S(=O)(=O)O)c1 [DNDS, 4,4′-dinitrostilbene-2,2′-disulfonic acid] |  |  |  |  |  |  |  |  |  |  |  |  | inhibition at 2000 µM (c-Met [1]; DU-145, read-out: inhibition of c-Met): ~90% |
